The results in this text go back to PubChem BioAssay (NCI).

Holding throughout (assay): NCI anticancer screen, dose series, 48 h
The test system of assay [1] is M14 melanoma.
Assay [2] relates to NCI-H522 lung.
Assay [3] deals with MDA-MB-435.
In assay [4] the test system is LOX IMVI melanoma.
In assay [5] the test system is OVCAR-8 ovarian.
Assay [6] has as its system IGROV1 ovarian.
For assay [7], the system named is MOLT-4 leukemia.
Assay [8] deals with NCI-H460 lung.
The test system of assay [9] is HT29 colon.
Assay [10] has as its system 786-0 renal.

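Method: 48-hour compound exposure of cells in 96-well plates, five concentrations, linear interpolation of endpoints. Abbreviation: GI50, concentration required for 50% inhibition of growth. TGI marks complete inhibition of growth.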 Some results are limits rather than exact numbers.

Regarding `Cc1cc(C)c(O)c(CN(C)Cc2cc(Cl)cc(Cl)c2O)c1`, the GI50 is 9.17 µM in assay [1]; 2.22 µM in [2]; 6.16 µM in assay [3]; 4.06 µM in assay [4]; 2.78 µM in assay [5]; 2.2 µM in [6]. Moreover, the GI50 in assay [7] was 3.45 µM; in assay [8], 3.49 µM; in [9], 5.1 µM; in assay [10] it was 9.38 µM. In addition, the TGI in assay [1] came out at 22.8 µM; in [2], 6.14 µM; in assay [3], 30.2 µM; in assay [4], 17.1 µM; in assay [5] it was 12.1 µM; in assay [6], 8.85 µM. For the same compound, the TGI in assay [7] amounted to 34.7 µM; in [8] it was 13.7 µM; in [9] it was 17.4 µM; in assay [10], 28.6 µM.

Consider `COC(=O)[C@]12CC[C@@H](C)[C@H](C)[C@@H]1C1=CC[C@@H]3[C@@]4(C)C=C(O)C(=O)[C@@]5(C)COC(=C54)C[C@@]3(C)[C@]1(C)CC2`, for which the GI50 is 11.7 µM in [1]; 2.57 µM in assay [2]; 6.12 µM in assay [3]; 8.85 µM in assay [4]; 12.9 µM in assay [5]; 8.42 µM in assay [6]. The GI50 in assay [7] was 2.21 µM; in assay [8], 12.4 µM; in assay [9] it was 10.5 µM; in [10], 13.9 µM. Besides, the TGI in [1] stood at 27.3 µM; in assay [2] it was 9.17 µM; in assay [3], 21.5 µM; in [4] it was 22.4 µM; in assay [5], 47 µM; in [6] it was 29.6 µM. The TGI in [7] was determined as 6.52 µM; in assay [8] it was 28.9 µM; in assay [9], 25.9 µM; in [10] it was 29.7 µM.

Regarding `C#Cc1c(C(N)=O)ncn1C1OC(COP(=O)(OCc2ccc([N+](=O)[O-])o2)N(C)CCCCCl)C(O)C1O` (stereo not given), the GI50 is 67.9 µM in assay [1]; 3.78 µM in [2]; 46.2 µM in assay [3]; 22.4 µM in assay [4]; 9.91 µM in [5]; 4.59 µM in assay [6]. For the same compound, the GI50 in [7] is 83.7 µM; in assay [8], 34.1 µM; in [9], 13.3 µM; in assay [10], 36.3 µM. Moreover, the TGI in assay [1] is above 100 µM; in assay [2] it was 88.1 µM; in assay [3], above 100 µM; in assay [4], above 100 µM; in [5], above 100 µM; in assay [6] it was above 100 µM. Also, the TGI in [7], in [8], in assay [9] and in [10] was above 100 µM in each case.

As to `Cc1ccc2c(O)c(O)cc(NC(C)CCCN)c2n1` (stereo not given), the GI50 in assay [1] was 33.6 µM; in assay [2], 3.15 µM; in assay [3] it was 19.4 µM; in assay [4], 4.55 µM; in assay [5] it was 4.35 µM; in assay [6] it was 14.2 µM. The GI50 was 2.6 µM in [7], 36.4 µM in [8], 7.04 µM in assay [9] and above 100 µM in assay [10]. The TGI in assay [1] was above 88.1 µM; in assay [2], 9.87 µM; in assay [3], 38.3 µM; in assay [4], 25.4 µM; in assay [5], above 100 µM; in [6], 47.7 µM. The TGI in assay [7] is 8.99 µM; in assay [8], above 100 µM; in assay [9], above 72.4 µM; in assay [10], above 100 µM.

In the case of `C=C1C(=O)O[C@H]2[C@H]1CC/C(COC(=O)NCCc1c[nH]c3ccc(OC)cc13)=C\CC[C@@]1(C)O[C@@H]21`, the GI50 is 1.62 µM in assay [1]; 1.18 µM in assay [2]; 1.8 µM in assay [3]; 1.32 µM in assay [4]; 1.97 µM in assay [5]; 2.08 µM in assay [6]. Further, the GI50 in [7] is 2.22 µM; in [8], 6.49 µM; in assay [9], 1.58 µM; in assay [10], 1.46 µM. Further, the TGI was determined as 3.51 µM in [1]; 2.75 µM in [2]; 4.06 µM in assay [3]; 2.78 µM in assay [4]; 5.23 µM in assay [5]; 4.7 µM in assay [6]. Further, the TGI in [7] turned out to be 5.88 µM; in assay [8], 25.2 µM; in assay [9], 3.09 µM; in assay [10] it was 3.47 µM.

With `O=C(c1ccco1)c1c(C(F)(F)F)n([O-])c2ccccc2[n+]1=O`, the GI50 in assay [1] is 0.613 µM; in assay [2], 0.468 µM; in assay [3], 1.85 µM; in [4], 0.548 µM; in assay [5], 1.23 µM; in assay [6] it was 0.549 µM. The GI50 in assay [7] is 0.102 µM; in [8], 0.245 µM; in assay [9], 4.2 µM; in [10], 0.42 µM. The TGI in [1] was found to be 1.91 µM; in [2], 1.98 µM; in [3], 17.5 µM; in assay [4], 2.1 µM; in assay [5] it was 22.5 µM; in [6], 1.21 µM. The TGI in [7] stood at 0.564 µM; in assay [8] it was 1.15 µM; in assay [9], 50 µM; in assay [10], 1.83 µM.

For `COc1ccccc1C#Cc1ccccc1C#CCCCCCC#Cc1ccccc1C#Cc1ccccc1OC`, the GI50 in assay [1] was 48.7 µM; in assay [2], 40.3 µM; in assay [3] it was 83.8 µM; in assay [4], 98.1 µM; in assay [5] it was above 100 µM; in assay [6] it was 77.7 µM. Moreover, the GI50 in assay [7] was above 100 µM; in assay [8], above 100 µM; in [9], 24.6 µM; in assay [10], above 100 µM. For the same compound, the TGI in assay [1], in assay [2], in [3], in assay [4], in [5] and in assay [6] was above 100 µM each time. The TGI in assay [7], in assay [8], in [9] and in [10] was above 100 µM each time.
